Source: PubChem BioAssay AID1963852 (Molecular Pharmacology Branch, DTP, NCI, 2024)
“And” between values parts separate entries of the source, which are not always exact repeats. Equal entries are not always repeated.

System: 282377-053-R-J1-PDC complex spheroid viability
Test: Anticancer human tumor 282377-053-R-J1-PDC patient-derived colon adenocarcinoma cell line growth inhibition [POLQ]
Conditions: for IC50: curve of first compound; for viability, T/C: stronger effect = lower value
Procedure, shortened: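 Patient-derived tumour cells were co-cultured with HUVEC and mesenchymal stem cells as multicellular spheroids at 37 °C. They were treated with POLQ inhibitors (novobiocin, ART-558, RP6685) alone or combined with other agents. Top concentrations were at or near clinical Cmax (otherwise 10 microM; SN-38 at 1 microM), decreasing in half-log steps.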
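Also: spheroids exposed to compounds for seven days.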
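For viability, T/C in this document: 100% = DMSO vehicle control viability.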

CC1COCCN1c1cc(C2(S(C)(=N)=O)CC2)nc(-c2ccnc3[nH]ccc23)n1 (stereo not drawn) + COC1C(OC(N)=O)C(O)C(Oc2ccc3c(O)c(NC(=O)c4ccc(O)c(CC=C(C)C)c4)c(=O)oc3c2C)OC1(C)C
IC50 (second compound 0.0316 µM): > 10 µM | IC50 (second compound 0.1 µM): 5.46 µM | IC50 (second compound 0.316 µM): 6.61 µM | IC50 (second compound 1 µM): 7.63 µM | IC50 (second compound 3.16 µM): 6.86 µM | IC50 (second compound 10 µM): 9.91 µM | viability, T/C (second compound 0.0316 µM, first compound 0.0316 µM): 108% | viability, T/C (second compound 0.0316 µM, first compound 0.1 µM): 89.1% | viability, T/C (second compound 0.0316 µM, first compound 0.316 µM): 110% | viability, T/C (second compound 0.0316 µM, first compound 1 µM): 76.9% | viability, T/C (second compound 0.0316 µM, first compound 3.16 µM): 74.9% | viability, T/C (second compound 0.0316 µM, first compound 10 µM): 56.7% | viability, T/C (second compound 0.1 µM, first compound 0.0316 µM): 92.4% | viability, T/C (second compound 0.1 µM, first compound 0.1 µM): 104% | viability, T/C (second compound 0.1 µM, first compound 0.316 µM): 88.5% | viability, T/C (second compound 0.1 µM, first compound 1 µM): 72.1% | viability, T/C (second compound 0.1 µM, first compound 3.16 µM): 61.9% | viability, T/C (second compound 0.1 µM, first compound 10 µM): 39.6% | viability, T/C (second compound 0.316 µM, first compound 0.0316 µM): 103% | viability, T/C (second compound 0.316 µM, first compound 0.1 µM): 82.1% | viability, T/C (second compound 0.316 µM, first compound 0.316 µM): 83.6% | viability, T/C (second compound 0.316 µM, first compound 1 µM): 81% | viability, T/C (second compound 0.316 µM, first compound 3.16 µM): 80.4% | viability, T/C (second compound 0.316 µM, first compound 10 µM): 33.9% | viability, T/C (second compound 1 µM, first compound 0.0316 µM): 115% | viability, T/C (second compound 1 µM, first compound 0.1 µM): 90.2% | viability, T/C (second compound 1 µM, first compound 0.316 µM): 91.5% | viability, T/C (second compound 1 µM, first compound 1 µM): 81% | viability, T/C (second compound 1 µM, first compound 3.16 µM): 79.5% | viability, T/C (second compound 1 µM, first compound 10 µM): 39.9% | viability, T/C (second compound 3.16 µM, first compound 0.0316 µM): 99% | viability, T/C (second compound 3.16 µM, first compound 0.1 µM): 93.3% | viability, T/C (second compound 3.16 µM, first compound 0.316 µM): 85.3% | viability, T/C (second compound 3.16 µM, first compound 1 µM): 107% | viability, T/C (second compound 3.16 µM, first compound 3.16 µM): 59.6% | viability, T/C (second compound 3.16 µM, first compound 10 µM): 45.3% | viability, T/C (second compound 10 µM, first compound 0.0316 µM): 104% | viability, T/C (second compound 10 µM, first compound 0.1 µM): 119% | viability, T/C (second compound 10 µM, first compound 0.316 µM): 79.8% | viability, T/C (second compound 10 µM, first compound 1 µM): 92.3% | viability, T/C (second compound 10 µM, first compound 3.16 µM): 66.1% | viability, T/C (second compound 10 µM, first compound 10 µM): 49.7%

CCc1c2c(nc3ccc(O)cc13)-c1cc3c(c(=O)n1C2)COC(=O)[C@]3(O)CC
viability, T/C (compound 0.00316 µM): 106% and 102% and 122% | viability, T/C (compound 0.01 µM): 69.4% and 103% and 64.5% | viability, T/C (compound 0.0316 µM): 63.4% and 83.3% and 72.2% | viability, T/C (compound 0.1 µM): 44.6% and 68.1% and 50.9% | viability, T/C (compound 0.316 µM): 31.1% and 69.5% and 42% | viability, T/C (compound 1 µM): 20% and 66.9% and 19.1%
